Measured values taken from patent US20230114728A1 (Venatorx Pharmaceuticals, Inc., priority 2019, published 2023).
Values after ≈ are worked out from the molar mass of the structure shown. Like-named read-outs stand apart in the source and are kept apart here.

Legend:
[1] = molecular target: T1, E. coli K12 PBP3 (Escherichia coli, UniProt P0AD68); assay: biochemical; assay type: binding
T1 construct: made in house
In short: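 A. baumannii PBP2 (2.5 μM) and PBP3 (0.2 μM) were run in 25 mM Tris pH 8.0 buffer with Tween 20; E. coli PBP3 (1.5 μM) and N. gonorrhoeae PBP2 ([…]) in 50 mM Hepes pH 8.0 buffer.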

[2] = system: N. gonorrhoeae ATCC 49226; assay: Liquid broth MIC in Fastidious broth; assay type: cell-based; conditions: Neisseria gonorrhoeae
In short: (§1)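 Colonies were swabbed from chocolate agar after 24 h growth and standardised by optical density at 600 nm. Compounds were serially diluted twofold in Fastidious broth, and bacteria added to give 5×10^5 CFU/mL. After about 24 h at 36 °C in 5% CO2, the lowest concentration allowing under 10% growth was taken as MIC.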

[3] = system: N. gonorrhoeae FA1090; assay: Liquid broth MIC in Fastidious broth; assay type: cell-based; conditions: Neisseria gonorrhoeae
In short: as §1

[4] = system: N. gonorrhoeae H041; assay: Liquid broth MIC in Fastidious broth; assay type: cell-based; conditions: Neisseria gonorrhoeae, H041, read-out: Minimum Inhibitory Concentration, N. gonorrhoeae H041
In short: (§2)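 Strains bearing mosaic PBP2 grown 24 h on chocolate agar (36° C, 5% CO2), suspended in saline and added to 2-fold compound dilutions in Fastidious broth at 5×10^5 CFU/mL. After ~24 hours at 36° C with 5% CO2, MIC taken visually as lowest well with <10% growth relative to full growth.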

[5] = system: N. gonorrhoeae WHO G; assay: Liquid broth MIC in Fastidious broth; assay type: cell-based; conditions: Neisseria gonorrhoeae, read-out: Minimum Inhibitory Concentration, N. gonorrhoeae WHO G
In short: as §1

[6] = system: N. gonorrhoeae WHO K; assay: Liquid broth MIC in Fastidious broth; assay type: cell-based; conditions: Neisseria gonorrhoeae, read-out: Minimum Inhibitory Concentration, N. gonorrhoeae WHO K
In short: as §2

[7] = system: N. gonorrhoeae WHO L; assay: Liquid broth MIC in Fastidious broth; assay type: cell-based; conditions: Neisseria gonorrhoeae, read-out: Minimum Inhibitory Concentration, N. gonorrhoeae WHO L
In short: as §1

[8] = ATCC49226, N. gonorrhoeae strain ATCC 49226, Fastidious broth, read-out: Minimum Inhibitory Concentration, N. gonorrhoeae ATCC 49226
[9] = N. gonorrhoeae strain FA1090, Fastidious broth, read-out: Minimum Inhibitory Concentration, N. gonorrhoeae FA1090
[10] = N. gonorrhoeae strain WHO G, Fastidious broth
[11] = N. gonorrhoeae strain WHO L, Fastidious broth

T1 sequence (P0AD68 1-577): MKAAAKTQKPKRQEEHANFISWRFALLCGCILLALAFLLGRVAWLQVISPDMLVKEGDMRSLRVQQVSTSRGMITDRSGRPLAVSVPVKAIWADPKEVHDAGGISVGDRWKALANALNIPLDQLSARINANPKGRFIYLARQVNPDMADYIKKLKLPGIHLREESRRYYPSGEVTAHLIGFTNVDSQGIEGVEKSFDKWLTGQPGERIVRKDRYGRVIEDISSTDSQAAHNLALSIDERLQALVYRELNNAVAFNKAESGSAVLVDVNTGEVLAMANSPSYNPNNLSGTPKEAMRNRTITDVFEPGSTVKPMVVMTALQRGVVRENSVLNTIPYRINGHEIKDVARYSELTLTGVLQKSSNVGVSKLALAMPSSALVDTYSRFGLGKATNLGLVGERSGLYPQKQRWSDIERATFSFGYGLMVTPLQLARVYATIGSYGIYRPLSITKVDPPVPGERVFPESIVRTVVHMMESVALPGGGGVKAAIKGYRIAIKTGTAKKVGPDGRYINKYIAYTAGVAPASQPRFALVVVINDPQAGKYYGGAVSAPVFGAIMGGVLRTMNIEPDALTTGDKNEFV

Structure (SMILES) | EC50 [1] | MIC [2, 8] | MIC [3, 9] | MIC [4] | MIC [5, 10] | MIC [6] | MIC [7, 11] | MIC ([2]; ATCC49226, read-out: Minimum Inhibitory Concentration, N. gonorrhoeae ATCC 49226) | MIC ([3]; FA1090, read-out: Minimum Inhibitory Concentration, N. gonorrhoeae FA1090) | MIC [5] | MIC [7]
CCN1CCN(C(=O)NC(C(=O)N[C@H]2Cc3cccc(C(=O)O)c3OB2O)c2ncc(C(=O)O)cc2F)C(=O)C1=O (stereo partly drawn) [Example 20, 6-(2-(((R)-8-carboxy-2-hydroxy-3,4-dihydro-2H-benzo[e][1,2]oxaborinin-3-yl)amino)-1-(4-ethyl-2,3-dioxopiperazine-1-carboxamido)-2-oxoethyl)-5-fluoronicotinic acid] | < 30 µM | 4 to 8 µg/mL (≈ 7 to 14 µM) | 1 to 2 µg/mL (≈ 1.75 to 3.5 µM) | 16 to 32 µg/mL (≈ 28 to 56 µM) | 4 to 8 µg/mL (≈ 7 to 14 µM) | 16 to 32 µg/mL (≈ 28 to 56 µM) | > 64 µg/mL |  |  |  | 
CCN1CCN(C(=O)NC(C(=O)N[C@H]2Cc3cccc(C(=O)O)c3OB2O)c2ccc(O)c(N(S(C)(=O)=O)S(C)(=O)=O)c2)C(=O)C1=O (stereo partly drawn) [Example 21, (3R)-3-(2-(4-ethyl-2,3-dioxopiperazine-1-carboxamido)-2-(4-hydroxy-3-(N-(methylsulfonyl)methylsulfonamido)phenyl)acetamido)-2-hydroxy-3,4-dihydro-2H-benzo[e][1,2]oxaborinine-8-carboxylic acid] | < 30 µM | > 64 µg/mL | 4 to 8 µg/mL (≈ 5.75 to 11.5 µM) | > 64 µg/mL | > 64 µg/mL | > 64 µg/mL | > 64 µg/mL |  |  |  | 
CCN1CCN(C(=O)NC(C(=O)N[C@H]2Cc3cccc(C(=O)O)c3OB2O)c2ccc(O)c(NS(C)(=O)=O)c2)C(=O)C1=O (stereo partly drawn) [Example 22, (3R)-3-(2-(4-ethyl-2,3-dioxopiperazine-1-carboxamido)-2-(4-hydroxy-3-(methylsulfonamido)phenyl)acetamido)-2-hydroxy-3,4-dihydro-2H-benzo[e][1,2]oxaborinine-8-carboxylic acid] | < 30 µM | > 64 µg/mL | 1 to 2 µg/mL (≈ 1.62 to 3.24 µM) | > 64 µg/mL | 16 to 32 µg/mL (≈ 25.9 to 51.8 µM) | > 64 µg/mL | > 64 µg/mL |  |  |  | 
CS(=O)(=O)N1CCN(C(=O)NC(C(=O)N[C@H]2Cc3ccc(F)c(C(=O)O)c3OB2O)c2ccc(O)c(O)c2Cl)C1=O (stereo partly drawn) [Example 23, (3R)-3-(2-(2-chloro-3,4-dihydroxyphenyl)-2-(3-(methylsulfonyl)-2-oxoimidazolidine-1-carboxamido)acetamido)-7-fluoro-2-hydroxy-3,4-dihydro-2H-benzo[e][1,2]oxaborinine-8-carboxylic acid] | < 30 µM | > 64 µg/mL | 4 to 8 µg/mL (≈ 6.51 to 13 µM) | > 64 µg/mL | 16 to 32 µg/mL (≈ 26 to 52.1 µM) | > 64 µg/mL | > 64 µg/mL |  |  |  | 
NCCN1CCN(C(=O)NC(C(=O)N[C@H]2Cc3ccc(F)c(C(=O)O)c3OB2O)c2nc(N)sc2F)C(=O)C1=O (stereo partly drawn) [Example 24, (3R)-3-(2-(2-amino-5-fluorothiazol-4-yl)-2-(4-(2-aminoethyl)-2,3-dioxopiperazine-1-carboxamido)acetamido)-7-fluoro-2-hydroxy-3,4-dihydro-2H-benzo[e][1,2]oxaborinine-8-carboxylic acid] | 30 to 500 µM | > 64 µg/mL | 16 to 32 µg/mL (≈ 27.5 to 55 µM) | > 64 µg/mL | 16 to 32 µg/mL (≈ 27.5 to 55 µM) | > 64 µg/mL | > 64 µg/mL |  |  |  | 
NC(C(=O)N[C@H]1Cc2ccc(F)c(C(=O)O)c2OB1O)c1c(F)cc(O)c(O)c1Cl (stereo partly drawn) [Example 25, (3R)-3-(2-amino-2-(2-chloro-6-fluoro-3,4-dihydroxyphenyl)acetamido)-7-fluoro-2-hydroxy-3,4-dihydro-2H-benzo[e][1,2]oxaborinine-8-carboxylic acid] | 30 to 500 µM | > 64 µg/mL | > 64 µg/mL | > 64 µg/mL | > 64 µg/mL | > 64 µg/mL | > 64 µg/mL |  |  |  | 
CCN1CCN(C(=O)NC(C(=O)N[C@H]2Cc3cccc(C(=O)O)c3OB2O)c2ccc(O)c(N)c2)C(=O)C1=O (stereo partly drawn) [Example 29, (3R)-3-(2-(3-amino-4-hydroxyphenyl)-2-(4-ethyl-2,3-dioxopiperazine-1-carboxamido)acetamido)-2-hydroxy-3,4-dihydro-2H-benzo[e][1,2]oxaborinine-8-carboxylic acid] | < 30 µM | > 64 µg/mL | 4 to 8 µg/mL (≈ 7.42 to 14.8 µM) | > 64 µg/mL | 16 to 32 µg/mL (≈ 29.7 to 59.3 µM) | > 64 µg/mL | > 64 µg/mL |  |  |  | 
CCN1CCN(C(=O)NC(C(=O)N[C@H]2Cc3cccc(C(=O)O)c3OB2O)c2ccc(O)c(NS(N)(=O)=O)c2)C(=O)C1=O (stereo partly drawn) [Example 30, (3R)-3-(2-(4-ethyl-2,3-dioxopiperazine-1-carboxamido)-2-(4-hydroxy-3-(sulfamoylamino)phenyl)acetamido)-2-hydroxy-3,4-dihydro-2H-benzo[e][1,2]oxaborinine-8-carboxylic acid] | < 30 µM | > 64 µg/mL | 1 to 2 µg/mL (≈ 1.62 to 3.23 µM) | > 64 µg/mL | 16 to 32 µg/mL (≈ 25.9 to 51.7 µM) | > 64 µg/mL | > 64 µg/mL |  |  |  | 
CCN1CCN(C(=O)NC(C(=O)N[C@H]2Cc3cccc(C(=O)O)c3OB2O)c2ccc(C(=O)O)c(F)c2)C(=O)C1=O (stereo partly drawn) [Example 31, (3R)-3-(2-(4-carboxy-3-fluorophenyl)-2-(4-ethyl-2,3-dioxopiperazine-1-carboxamido)acetamido)-2-hydroxy-3,4-dihydro-2H-benzo[e][1,2]oxaborinine-8-carboxylic acid] | < 30 µM | 1 to 2 µg/mL (≈ 1.75 to 3.51 µM) | < 0.125 µg/mL | 4 to 8 µg/mL (≈ 7.01 to 14 µM) | 1 to 2 µg/mL (≈ 1.75 to 3.51 µM) | 4 to 8 µg/mL (≈ 7.01 to 14 µM) | 4 to 8 µg/mL (≈ 7.01 to 14 µM) |  |  |  | 
N[C@@H](C(=O)N[C@H]1Cc2ccc(F)c(C(=O)O)c2OB1O)c1ccc(OS(=O)(=O)F)cc1 [Example 32, (R)-3-((R)-2-amino-2-(4-((fluorosulfonyl)oxy)phenyl)acetamido)-7-fluoro-2-hydroxy-3,4-dihydro-2H-benzo[e][1,2]oxaborinine-8-carboxylic acid] | > 500 µM |  |  | > 64 µg/mL |  | > 64 µg/mL |  | > 64 µg/mL | > 64 µg/mL | > 64 µg/mL | > 64 µg/mL
CCN1CCN(C(=O)NC(C(=O)N[C@H]2Cc3ccc(F)c(C(=O)O)c3OB2O)c2c(F)cc(O)c(O)c2F)C(=O)C1=O (stereo partly drawn) [Example 36, (3R)-3-(2-(2,6-difluoro-3,4-dihydroxyphenyl)-2-(4-ethyl-2,3-dioxopiperazine-1-carboxamido)acetamido)-7-fluoro-2-hydroxy-3,4-dihydro-2H-benzo[e][1,2]oxaborinine-8-carboxylic acid] | < 30 µM | 16 to 32 µg/mL (≈ 26.9 to 53.8 µM) | 4 to 8 µg/mL (≈ 6.73 to 13.5 µM) | 16 to 32 µg/mL (≈ 26.9 to 53.8 µM) | 16 to 32 µg/mL (≈ 26.9 to 53.8 µM) | 16 to 32 µg/mL (≈ 26.9 to 53.8 µM) | > 64 µg/mL |  |  |  | 
O=C(O)c1c(F)ccc2c1OB(O)[C@@H](NC(=O)C(NC(=O)N1CCN(CCF)C(=O)C1=O)c1c(F)cc(O)c(O)c1F)C2 (stereo partly drawn) [Example 37, (3R)-3-(2-(2,6-difluoro-3,4-dihydroxyphenyl)-2-(4-(2-fluoroethyl)-2,3-dioxopiperazine-1-carboxamido)acetamido)-7-fluoro-2-hydroxy-3,4-dihydro-2H-benzo[e][1,2]oxaborinine-8-carboxylic acid] | < 30 µM | 16 to 32 µg/mL (≈ 26.1 to 52.3 µM) | 4 to 8 µg/mL (≈ 6.53 to 13.1 µM) | 16 to 32 µg/mL (≈ 26.1 to 52.3 µM) | 16 to 32 µg/mL (≈ 26.1 to 52.3 µM) | 16 to 32 µg/mL (≈ 26.1 to 52.3 µM) | > 64 µg/mL |  |  |  | 
